Test results as given in US5049547A, “Composition for stimulating integumental melanocytes” (University Patents, Inc., priority 1989, dated 1991).
“And” between values parts separate entries of the source, which are not always exact repeats. Identical values can stand only once. Like-named read-outs stand apart in the source and are kept apart here. Non-standard residues stand in square brackets, D forms with d. Residues, ends and D or L forms follow the SMILES beside them. dPhg = N[C@@H](C(=O)O)c1ccccc1; Nle = CCCC[C@H](N)C(=O)O

Experiments:
frog (Rana pipiens) skin = type: cell-based
Procedure: (§1) Biological effect on in vivo and in vitro melanosome dispersion was examined using the frog (Rana pipiens) and the lizard (Anolis caroliniensis). [Hadley et al., ,Science 213:1025-1027(1981)]; similar examinations were conducted with respect to the duration of its ability to stimulate melanosome dispersion in vitro using the skin bioassay as described in Shimume, Endrochrinology, 54:553-560(1954). The in vitro results are depicted in Table I.

[1] = system: lizard (Anolis caroliniensis) skin; assay: in vitro lizard skin bioassay, melanosome dispersion; type: cell-based; conditions: alpha-MSH = 1.0
Procedure: as §1

[2] = system: TA-98 strain of S. typhimurium; assay: Ames microbacterial assay; conditions: spontaneous revertants subtracted
Procedure: The Ames microbacterial assay was used for these tests which were performed both with and without a microsomal enzyme/NADPH generating system. Briefly, this test measures the number of reverse mutations which occur in special histidine-dependent strains of Salmonella typhimurium. Positives (mutations) are scored as the number of revertant cells which are able to form colonies in a histidine-deficient growth medium after exposure to a mutagenic substance.
All substances were dissolved in sterile 0.9% sodium chloride (without preservatives) to concentrations of 10^-2, 10^-3 and 10^-4 Molar. The TA-98 strain of S. typhimurium was used and experiments were performed with and without exposure to S-9 rat liver microsomal enzymes and an NADPH generating system. This enzyme cocktail can metabolically activate some compounds to mutagenic species. In addition to the melanotropins, doxorybicin (Adriamycin™) was also simultaneously tested. […] It was thus included to act as a positive control. […] For the actual evalution of revertants, the identity of the specific test compounds was blinded.

Molecule	Relative Potency Frog (frog (Rana pipiens) skin; in vitro, alpha-MSH = 1.0)	Relative Potency Lizard [1]	also measured
CC(=O)N[C@@H](CCC(=O)O)C(=O)N[C@@H](Cc1c[nH]cn1)C(=O)N[C@H](Cc1ccccc1)C(=O)N[C@@H](CCCNC(=N)N)C(=O)N[C@@H](Cc1c[nH]c2ccccc12)C(=O)NCC(=O)N[C@@H](CCCCN)C(N)=O [Ac-[D-Phe^7]-alpha-MSH5-11 -NH2] (Ac-EH[dF]RWGK-NH2)	0.01		
CCCC[C@H](NC(C)=O)C(=O)N[C@@H](CCC(=O)O)C(=O)N[C@@H](Cc1c[nH]cn1)C(=O)N[C@@H](C)C(=O)N[C@@H](CCCNC(=N)N)C(=O)N[C@@H](Cc1c[nH]c2ccccc12)C(=O)NCC(=O)N[C@@H](CCCCN)C(N)=O [Ac-[Nle^4 -Ala^7]-alpha-MSH4-11 -NH2] (Ac-[Nle]EHARWGK-NH2)			Relative Potency Frog (frog (Rana pipiens) skin): 0.02
CCCC[C@H](NC(C)=O)C(=O)N[C@@H](CCC(=O)O)C(=O)N[C@@H](Cc1c[nH]cn1)C(=O)N[C@H](C)C(=O)N[C@@H](CCCNC(=N)N)C(=O)N[C@@H](Cc1c[nH]c2ccccc12)C(=O)NCC(=O)N[C@@H](CCCCN)C(N)=O [Ac-[Nle^4 -D-Ala^7]-alpha-MSH4-11 -NH2] (Ac-[Nle]EH[dA]RWGK-NH2)	0.000080	0.020	
CCCC[C@H](NC(C)=O)C(=O)N[C@@H](CCC(=O)O)C(=O)N[C@@H](Cc1c[nH]cn1)C(=O)N[C@@H](Cc1ccccc1)C(=O)N[C@H](CCCNC(=N)N)C(=O)N[C@@H](Cc1c[nH]c2ccccc12)C(=O)NCC(=O)N[C@@H](CCCCN)C(N)=O [Ac-[Nle^4 -D-Arg^8]-alpha-MSH4-11 -NH2] (Ac-[Nle]EHF[dR]WGK-NH2)	0.000016	0.0022	
CCCC[C@H](NC(C)=O)C(=O)N[C@@H](CCC(=O)O)C(=O)N[C@@H](Cc1c[nH]cn1)C(=O)N[C@H](Cc1ccccc1)C(=O)N[C@@H](CCCNC(=N)N)C(=O)N[C@H](Cc1c[nH]c2ccccc12)C(N)=O [Ac-[Nle^4 -D-Phe^7 -D-Trp^9]-alpha-MSH4-9 -NH2] (Ac-[Nle]EH[dF]R[dW]-NH2)	0.03	3.8	
CCCC[C@H](NC(C)=O)C(=O)N[C@@H](CCC(=O)O)C(=O)N[C@@H](Cc1c[nH]cn1)C(=O)N[C@H](Cc1ccccc1)C(=O)N[C@@H](CCCNC(=N)N)C(=O)N[C@@H](Cc1ccccc1)C(=O)NCC(=O)N[C@@H](CCCCN)C(N)=O [Ac-[Nle^4 -D-Phe^7 -Phe^9]-alpha-MSH4-11 -NH2] (Ac-[Nle]EH[dF]RFGK-NH2)	0.017		
CCCC[C@H](NC(C)=O)C(=O)N[C@@H](CCC(=O)O)C(=O)N[C@@H](Cc1c[nH]cn1)C(=O)N[C@H](Cc1ccccc1)C(=O)N[C@@H](CCCNC(=N)N)C(=O)N[C@@H](Cc1c[nH]c2ccccc12)C(=O)NCC(N)=O [Ac-[Nle^4 -D-Phe^7]-alpha-MSH4-10 -NH2]	0.02		REVERTANTS PER PLATE WITH S-9 ([2]; 10^-2 M): 0; […] PLATE WITHOUT S-9 ([2]; 10^-2 M): 0; REVERTANTS PER PLATE WITH S-9 ([2]; 10^-3 M): 0; […] PLATE WITHOUT S-9 ([2]; 10^-3 M): 0; REVERTANTS PER PLATE WITH S-9 ([2]; 10^-4 M): 0; […] PLATE WITHOUT S-9 ([2]; 10^-4 M): 0
CCCC[C@H](NC(C)=O)C(=O)N[C@@H](CCC(=O)O)C(=O)N[C@@H](Cc1c[nH]cn1)C(=O)N[C@@H](C(=O)N[C@@H](CCCNC(=N)N)C(=O)N[C@@H](Cc1c[nH]c2ccccc12)C(=O)NCC(=O)N[C@@H](CCCCN)C(N)=O)c1ccccc1 [Ac-[Nle^4 -D-Plg^7]-alpha-MSH4-11 -NH2] (Ac-[Nle]EH[dPhg]RWGK-NH2)	0.0003	0.0005	
CCCC[C@H](NC(C)=O)C(=O)N[C@@H](CCC(=O)O)C(=O)N[C@@H](Cc1c[nH]cn1)C(=O)N[C@H](Cc1ccc(O)cc1)C(=O)N[C@@H](CCCNC(=N)N)C(=O)N[C@@H](Cc1c[nH]c2ccccc12)C(=O)NCC(=O)N[C@@H](CCCCN)C(N)=O [Ac-[Nle^4 -D-Tyr^7]-alpha-MSH4-11 -NH2] (Ac-[Nle]EH[dY]RWGK-NH2)	0.0020 and 0.0033	1.0	
CCCC[C@H](NC(C)=O)C(=O)N[C@@H](CCC(=O)O)C(=O)N[C@@H](Cc1ccccc1)C(=O)N[C@H](Cc1ccccc1)C(=O)N[C@@H](CCCNC(=N)N)C(=O)N[C@@H](Cc1c[nH]c2ccccc12)C(=O)NCC(=O)N[C@@H](CCCCN)C(N)=O [Ac-[Nle^4 -Phe^6 -D-Phe^7]-alpha-MSH4-11 -NH2] (Ac-[Nle]EF[dF]RWGK-NH2)	0.012		
CCCC[C@H](NC(C)=O)C(=O)N[C@@H](CCC(=O)O)C(=O)N[C@@H](Cc1c[nH]cn1)C(=O)N[C@@H](Cc1ccc(O)cc1)C(=O)N[C@@H](CCCNC(=N)N)C(=O)N[C@@H](Cc1c[nH]c2ccccc12)C(=O)NCC(=O)N[C@@H](CCCCN)C(N)=O [Ac-[Nle^4 -Tyr^7]-alpha-MSH4-11 -NH2] (Ac-[Nle]EHYRWGK-NH2)		0.0090	
CCCC[C@H](NC(C)=O)C(=O)N[C@@H](CCC(=O)O)C(=O)N[C@@H](Cc1c[nH]cn1)C(=O)N[C@@H](Cc1ccccc1)C(=O)N[C@@H](CCCNC(=N)N)C(=O)N[C@@H](Cc1c[nH]c2ccccc12)C(=O)NCC(=O)N[C@@H](CCCCN)C(N)=O [Ac-[Nle^4 ]-alpha-MSH4-11 -NH2] (Ac-[Nle]EHFRWGK-NH2)	0.0019		
CCCC[C@H](NC(C)=O)C(=O)N[C@@H](CCC(=O)O)C(=O)N[C@@H](Cc1c[nH]cn1)C(=O)N[C@@H](Cc1ccccc1)C(=O)N[C@@H](CCCNC(=N)N)C(=O)N[C@@H](Cc1c[nH]c2ccccc12)C(N)=O [Ac-[Nle^4]-alpha-MSH4-9 -NH2] (Ac-[Nle]EHFRW-NH2)	0.0007	0.18	
CC(=O)N[C@@H](Cc1ccc(O)cc1)C(=O)N[C@@H](CCC(=O)O)C(=O)N[C@@H](Cc1c[nH]cn1)C(=O)N[C@H](Cc1ccccc1)C(=O)N[C@@H](CCCNC(=N)N)C(=O)N[C@@H](Cc1c[nH]c2ccccc12)C(=O)NCC(=O)N[C@@H](CCCCN)C(N)=O [Ac-[Tyr^4 -D-Phe^7]-alpha-MSH4-11 -NH2] (Ac-YEH[dF]RWGK-NH2)	0.01		
COc1cccc2c1C(=O)c1c(O)c3c(c(O)c1C2=O)C[C@@](O)(C(=O)CO)C[C@@H]3O[C@H]1C[C@H](N)[C@H](O)[C@H](C)O1 [Adriamycin, Doxorubicin, reference compound]			[…] PLATE WITH S-9 ([2]; 10 µg/ml): 2500; […] PLATE WITHOUT S-9 ([2]; 10 µg/ml): 230; […] PLATE WITH S-9 ([2]; 1.0 g/ml): 100; […] PLATE WITHOUT S-9 ([2]; 1.0 g/ml): 0
Ac-[Nle^4 -D-Phe^7 -D-Arg^8 ]-alpha-MSH4-		0.0022	
Ac-[Phe-Gly^7 ]-alpha-MSH4-11 -NH2	0.10		
